Source: patent US20230303512A1, “MODULATORS OF MYB-MEDIATED TRANSCRIPTION AND USES THEREOF” (Massachusetts Institute of Technology, priority 2020, published 2023)

Columns and labels:
endogenous Myb protein = assay: Molt4-5×MRE-FLuc reporter assay; format: cell-based; conditions: 4 hours, One-Glo, normalized to DMSO; read-out: IC50 Molt4-5xMRE-FLuc Reporter
Procedure: Molt4 cells were stably transduced with a lentiviral construct encoding a 5×MRE Myb-responsive promoter driving firefly luciferase expression. The reporter output is controlled by the levels/activity of endogenous Myb protein in the Molt4 cell line.
Molt4-5×MRE-FLuc cells were plated at a density of 10000 cells/well in 25 uL of media in a 384-well plate. Compound analogs were added using a Tecan transfer tool to the wells. The plate was incubated for 4 hours, and then firefly luciferase signal measured using promega One-Glo luciferase assay system according to the manufacturer's protocols. The signal was normalized to control wells which were treated with DMSO vehicle.

Molt4-5×MRE-FLuc cells = assay: Cell-Titer Glo viability assay, Molt4-5×MRE-FLuc cells; format: cell-based; conditions: 4 hours; read-out: IC50 Cell Titer Glo Molt4-5xMRE-FLuc Viability
Procedure: Molt4-5×MRE-FLuc cells were plated at a density of 10000 cells/well in 25 uL of media in a 384-well plate. The following day, compound analogs were added using a Tecan transfer tool. The plates were incubated for 4 hours, and then the viability was measured using promega Cell-titer glo assay according to the manufacturer's protocols.

Row | IC50 (Molt4-5×MRE-FLuc cells) | Structure (SMILES) | IC50 (endogenous Myb protein)
1 | > 40 µM | Cc1cc(N2CCC(NCc3cccc(N4CCN(C)CC4)c3)CC2)nc(N)n1 [KI-TM1-039, 4-Methyl-6-(4-((3-(4-methylpiperazin-1-yl)benzyl)amino)piperidin-1-yl)pyrimidin-2-amine] | > 40 µM
2 | > 40 µM | Cc1cc(N2CCC(NCc3cccc(C(C)(C)C)c3)CC2)nc(N)n1 [KI-TM1-026, 4-(4-((3-(tert-Butyl)benzyl)amino)piperidin-1-yl)-6-methylpyrimidin-2-amine] | > 40 µM
3 | > 40 µM | Cc1cc(N2CCC(NCc3cccc(-n4cccc4)c3)CC2)nc(N)n1 [KI-TM1-010, 4-(4-((3-(1H-pyrrol-1-yl)benzyl)amino)piperidin-1-yl)-6-methylpyrimidin-2-amine] | 21.2 µM
4 | > 40 µM | Cc1cc(N2CCC(NCc3ccccc3N3CCCC3)CC2)nc(N)n1 [KI-TM1-006, 4-methyl-6-(4-((2-(pyrrolidin-1-yl)benzyl)amino)piperidin-1-yl)pyrimidin-2-amine] | > 40 µM
5 | > 40 µM | Cc1cc(N2CCC(NCc3ccc(N4CCCC4)cc3)CC2)nc(N)n1 [KI-TM1-007, 4-methyl-6-(4-((4-(pyrrolidin-1-yl)benzyl)amino)piperidin-1-yl)pyrimidin-2-amine] | > 40 µM
6 | > 40 µM | Cc1cc(N2CCC(NCc3cccc(N4CCOCC4)c3)CC2)nc(N)n1 [KI-TM1-040, 4-Methyl-6-(4-((3-morpholinobenzyl)amino)piperidin-1-yl)pyrimidin-2-amine] | > 40 µM
7 | > 40 µM | Cc1cc(N2CCC(NCc3cccc(N(C)C)c3)CC2)nc(N)n1 [KI-TM1-011, 4-(4-((3-(dimethylamino)benzyl)amino)piperidin-1-yl)-6-methylpyrimidin-2-amine] | > 40 µM
8 | > 40 µM | Cc1cc(N2CCC(NCc3cccc(-n4ccnc4)c3)CC2)nc(N)n1 [KI-TM1-014, 4-(4-((3-(1H-imidazol-1-yl)benzyl)amino)piperidin-1-yl)-6-methylpyrimidin-2-amine] | > 40 µM
9 | > 40 µM | Cc1cc(N2CCC(NCc3cccc(N4CCCC4)c3)CC2)nc(Cl)n1 [KI-TM1-033, 1-(2-Chloro-6-methylpyrimidin-4-yl)-N-(3-(pyrrolidin-1-yl)benzyl)piperidin-4-amine] | 23.5 µM
10 | > 40 µM | Nc1nc(Cl)cc(N2CCC(NCc3cccc(N4CCCC4)c3)CC2)n1 [KI-TM1-038, 4-Chloro-6-(4-((3-(pyrrolidin-1-yl)benzyl)amino)piperidin-1-yl)pyrimidin-2-amine] | > 40 µM
11 | > 40 µM | Cc1cc(N2CCC[C@H](NCc3cccc(N4CCCC4)c3)C2)nc(N)n1 [KI-TM1-016S, (S)-4-Methyl-6-(3-((3-(pyrrolidin-1-yl)benzyl)amino)piperidin-1-yl)pyrimidin-2-amine] | 22.3 µM
12 | > 40 µM | CCN(CC)c1ccc(CNC2CCN(c3cc(C)nc(N)n3)CC2)cc1 [KI-TM1-027, 4-(4-((4-(Diethylamino)benzyl)amino)piperidin-1-yl)-6-methylpyrimidin-2-amine] | > 40 µM
13 | > 40 µM | Cc1cc(N2CCC(NCc3cccc(CN4CCCC4)c3)CC2)nc(N)n1 [KI-TM1-028, 4-Methyl-6-(4-((3-(pyrrolidin-1-ylmethyl)benzyl)amino)piperidin-1-yl)pyrimidin-2-amine] | > 40 µM
14 | > 40 µM | COc1cccc(CNC2CCN(c3cc(C)nc(N)n3)CC2)c1 [KI-TM1-012, 4-(4-((3-methoxybenzyl)amino)piperidin-1-yl)-6-methylpyrimidin-2-amine] | > 40 µM
15 | > 40 µM | Cc1cc(N2CCC(NCc3cccc(N4CCCCC4)c3)CC2)nc(N)n1 [KI-TM1-009, 4-methyl-6-(4-((3-(piperidin-1-yl)benzyl)amino)piperidin-1-yl)pyrimidin-2-amine] | 23.2 µM
16 | > 40 µM | Cc1cc(N2CCC[C@@H](NCc3cccc(N4CCCC4)c3)C2)nc(N)n1 [KI-TM1-016R, (R)-4-Methyl-6-(3-((3-(pyrrolidin-1-yl)benzyl)amino)piperidin-1-yl)pyrimidin-2-amine] | > 40 µM

Continued, compound first:

Row | Structure (SMILES) | IC50 (Molt4-5×MRE-FLuc cells) | IC50 (endogenous Myb protein)
17 | Cc1cc(N2CCC(N(Cc3cccc(N4CCCC4)c3)C(=O)NC(C)C)CC2)nc(N)n1 [KI-TM1-003, 1-(1-(2-Amino-6-methylpyrimidin-4-yl)piperidin-4-yl)-3-isopropyl-1-(3-(pyrrolidin-1-yl)benzyl)urea] | > 40 µM | > 40 µM
18 | CCCNC(=O)N(Cc1cccc(N2CCCC2)c1)C1CCN(c2cc(C)nc(N)n2)CC1 [KI-TM1-034, 1-(1-(2-Amino-6-methylpyrimidin-4-yl)piperidin-4-yl)-3-propyl-1-(3-(pyrrolidin-1-yl)benzyl)urea] | > 40 µM | > 40 µM
19 | Cc1cc(N2CCC(NC(=O)c3cccc(N4CCCC4)c3)CC2)nc(N)n1 [KI-TM1-008, N-(1-(2-amino-6-methylpyrimidin-4-yl)piperidin-4-yl)-3-(pyrrolidin-1-yl)benzamide] | > 40 µM | > 40 µM
20 | C#CCCC1(CCN(Cc2cccc(N3CCCC3)c2)C2CCN(c3cc(C)nc(N)n3)CC2)N=N1 [KI-TM1-030, 4-(4-((2-(3-(But-3-yn-1-yl)-3H-diazirin-3-yl)ethyl)(3-(pyrrolidin-1-yl)benzyl)amino)-piperidin-1-yl)-6-methylpyrimidin-2-amine] | > 40 µM | 19.8 µM
21 | Cc1cc(N2CCC(NCc3cccc(N4CCCC4)c3)CC2)nc(NCCO)n1 [KI-TM1-037, 2-((4-Methyl-6-(4-((3-(pyrrolidin-1-yl)benzyl)amino)piperidin-1-yl)pyrimidin-2-yl)amino)ethan-1-ol] | > 40 µM | > 40 µM
22 | Cc1cc(N2CCC(NCc3cccc(N4CCCC4)c3)CC2)nc(NCCOCCOCCOCCN)n1 [KI-TM1-041, N-(2-(2-(2-(2-Aminoethoxy)ethoxy)ethoxy)ethyl)-4-methyl-6-(4-((3-(pyrrolidin-1-yl)benzyl)amino)piperidin-1-yl)pyrimidin-2-amine] | > 40 µM | > 40 µM
23 | Cc1cc(N2CCC(N(Cc3cccc(N4CCCC4)c3)C(=O)C=COCCOCCOCCN)CC2)nc(N)n1 [KI-TM1-031, N-(1-(2-Amino-6-methylpyrimidin-4-yl)piperidin-4-yl)-3-(2-(2-(2-aminoethoxy)ethoxy)-ethoxy)-N-(3-(pyrrolidin-1-yl)benzyl)propenamide] | > 40 µM | > 40 µM
24 | Cc1cc(NCCCNCc2cccc(N3CCCC3)c2)nc(N)n1 [KI-TM1-017, 6-Methyl-N^4-(3-((3-(pyrrolidin-1-yl)benzyl)amino)propyl)pyrimidine-2,4-diamine] | > 40 µM | > 40 µM
25 | Cc1cnc(N)nc1N1CCC(NCc2cccc(N3CCCC3)c2)CC1 [KI-TM1-036, 5-Methyl-4-(4-((3-(pyrrolidin-1-yl)benzyl)amino)piperidin-1-yl)pyrimidin-2-amine] | > 40 µM | 24.9 µM
26 | Cc1cc(N2CCC(N(CCCCCCOCCOCC(=O)Nc3cccc4c3C(=O)N(C3CCC(=O)NC3=O)C4=O)Cc3cccc(N4CCCC4)c3)CC2)nc(N)n1 (stereo not drawn) [KI-TM1-044, 2-(2-((6-((1-(2-Amino-6-methylpyrimidin-4-yl)piperidin-4-yl)(3-(pyrrolidin-1-yl)benzyl)amino)hexyl)oxy)ethoxy)-N-(2-(2,6-dioxopiperidin-3-yl)-1,3-dioxoisoindolin-4-yl)acetamide] | > 40 µM | > 40 µM
27 | CC(=O)N(Cc1cccc(N2CCCC2)c1)C1CCN(c2cc(C)nc(N)n2)CC1 [KI-TM1-004, N-(1-(2-amino-6-methylpyrimidin-4-yl)piperidin-4-yl)-N-(3-(pyrrolidin-1-yl)benzyl)acetamide] | > 40 µM | > 40 µM
28 | Cc1cc(N2CCCC(N(Cc3cccc(N4CCCC4)c3)C(=O)C=COCCOCCOCCN)C2)nc(N)n1 (stereo not drawn) [KI-TM1-032, N-(1-(2-Amino-6-methylpyrimidin-4-yl)piperidin-3-yl)-3-(2-(2-(2-aminoethoxy)ethoxy)-ethoxy)-N-(3-(pyrrolidin-1-yl)benzyl)propenamide] | > 40 µM | > 40 µM
29 | Cc1cc(N2CCC(N(CCCCCCOCCOCCOCCCCCC(=O)Nc3cccc4c3C(=O)N(C3CCC(=O)NC3=O)C4=O)Cc3cccc(N4CCCC4)c3)CC2)nc(N)n1 (stereo not drawn) [KI-TM1-043, 2-(1-(2-amino-6-methylpyrimidin-4-yl)piperidin-4-yl)-N-(2-(2,6-dioxopiperidin-3-yl)-1,3-dioxoisoindolin-4-yl)-1-(3-(pyrrolidin-1-yl)phenyl)-9,12,15-trioxa-2-azahenicosan-21-amide] | > 40 µM | > 40 µM
30 | Cc1cc(N2CCC(NCc3cccc(N4CCCC4)c3)CC2)ncn1 [KI-TM1-019, 1-(6-Methylpyrimidin-4-yl)-N-(3-(pyrrolidin-1-yl)benzyl)piperidin-4-amine] | > 40 µM | 22.1 µM
